Read-outs that look alike come from different tables or passages of the source. Where no end group is shown, it is not given here.

This note sets out measurements from patent US5545618A, “GLP-1 analogs useful for diabetes treatment” (priority 1993, dated 1996).

Data set [1] concerns RIN 1046-38 cells. The procedure: An additional test for potency of the compounds of the invention measures their ability to stimulate cAMP production in RIN 1046-38 cells. This assay can be conducted as follows:
On day 1, 5×10^5 RIN 1046-38 cells (Drucker, D. J., et al., Proc Natl Acad Sci USA (1987) 84:3434-3438) are seeded into individual wells of 6-well dishes with 2.5 mL M199 culture medium. On day 4, cells are re-fed with fresh medium and on day 5 the assay is performed. […] Assays are only performed on cell passage ≤24.
At time -60 min, monolayers are washed twice with 2.5 mL PBS, and medium is changed to 1.0 mL of DMEM medium plus 4.5 g/l glucose and 0.1% BSA (assay medium). At 0 time, medium is aspirated and fresh assay medium, 1.0 mL, containing test compound is added. Test compound is added in 50 ul volume of PBS plus 0.1% BSA; controls are added in vehicle alone. Incubation is continued for 0 to 60 min.
At termination, conditioned medium and monolayer are harvested to measure both extra- and intracellular cAMP content. For extracellular measurement, medium is removed and centrifuged to remove any cellular debris. For intracellular determination, after medium removal, 1.0 mL of ice cold 95% ethanol is added to monolayer. Cells are collected by scraping, lysed by two cycles of quick freeze/thawing using liquid N2, and cell debris then removed by centrifugation. Aliquots (1/40th well content) of conditioned medium and ethanol cell extract are measured in duplicate for cAMP levels using an RIA kit by the acetylated protocol.
Insulin secretion can also be measured by the method described by Holst, J. J., et al. FEBS Letters (1987) 211:169-174 (supra). Also useful as an assay for insulinotropic effect is the measurement of stimulation of adenylate cyclase in the RIN 1046-38 cell line. Drucker, D. J. et al., Proc Natl Acad Sci USA (1987) 84:3434-3438 (supra).

A short description of data set [2]: degradation in plasma by RP-HPLC. Format: in vitro ADME. Particulars: incubation in plasma for 60 minutes.
Data set [3] is classed as in vitro ADME. The procedure:
Polyclonal antisera were raised in New Zealand White rabbits against a synthetic peptide fragment corresponding to residues 24 to 37 of GLP-1(7-37) using the method of Mosjoy, S. et al., J Biol Chem (1986) 261:11880-11889. Initial immunizations were into the inguinal lymph nodes and used Freund's complete adjuvant. Two subcutaneous boosts were performed at 1 week intervals after the initial immunization and used Freund's incomplete adjuvant. For a single immunization or boost 100 μg peptide and 100 μg methylated BSA dissolved in 0.3 mL phosphate-buffered saline (PBS) were emulsified with 0.9 mL adjuvant. Bleeds (50 mL) began at week 6 after the initial immunization and continued at 1 month intervals thereafter. Repeat boosts were performed as above when titers dropped noticeably from the level of the previous bleed.

For the compound `CC[C@H](C)[C@H](NC(=O)[C@H](Cc1ccccc1)NC(=O)[C@H](CCC(=O)O)NC(=O)[C@H](CCCCN)NC(=O)[C@H](C)NC(=O)[C@H](C)NC(=O)[C@H](CCC(N)=O)NC(=O)CNC(=O)[C@H](CCC(=O)O)NC(=O)[C@H](CC(C)C)NC(=O)[C@H](Cc1ccc(O)cc1)NC(=O)[C@H](CO)NC(=O)[C@H](CO)NC(=O)[C@@H](NC(=O)[C@H](CC(=O)O)NC(=O)[C@H](CO)NC(=O)[C@@H](NC(=O)[C@H](Cc1ccccc1)NC(=O)[C@@H](NC(=O)CNC(=O)[C@@H](CC(=O)O)NC(=O)[C@H](C)NC(=O)[C@@H](N)Cc1c[nH]cn1)[C@@H](C)O)[C@@H](C)O)C(C)C)C(=O)N[C@@H](C)C(=O)N[C@@H](Cc1c[nH]c2ccccc12)C(=O)N[C@@H](CC(C)C)C(=O)N[C@H](C(=O)N[C@@H](CCCCN)C(=O)NCC(=O)N[C@@H](CCCNC(=N)N)C(=O)NCC(=O)O)C(C)C` [(D^.dagger.)^9 -GLP-1(7-37)], in data set [1], the “ED50 nM Duplicate Assays (first value)” value was determined as 0.90 nM and the “ED50 nM Duplicate Assays (second value)” value is 0.90 nM. Moreover, the “Resistance to Degradation” value in data set [2] was “-”.

`CC[C@H](C)[C@H](NC(=O)[C@H](Cc1ccccc1)NC(=O)[C@H](CCC(=O)O)NC(=O)[C@H](CCCCN)NC(=O)[C@H](C)NC(=O)[C@H](C)NC(=O)[C@H](CCC(N)=O)NC(=O)CNC(=O)[C@H](CCC(=O)O)NC(=O)[C@H](CC(C)C)NC(=O)[C@H](Cc1ccc(O)cc1)NC(=O)[C@H](CO)NC(=O)[C@H](CO)NC(=O)[C@@H](NC(=O)[C@H](CC(=O)O)NC(=O)[C@H](CO)NC(=O)[C@@H](NC(=O)[C@H](Cc1ccccc1)NC(=O)[C@@H](NC(=O)CNC(=O)[C@H](CCC(N)=O)NC(=O)[C@H](C)NC(=O)[C@@H](N)Cc1c[nH]cn1)[C@@H](C)O)[C@@H](C)O)C(C)C)C(=O)N[C@@H](C)C(=O)N[C@@H](Cc1c[nH]c2ccccc12)C(=O)N[C@@H](CC(C)C)C(=O)N[C@H](C(=O)N[C@@H](CCCCN)C(=O)NCC(=O)N[C@@H](CCCNC(=N)N)C(=O)NCC(=O)O)C(C)C` [(Q)^9 GLP-1 (7-37)]: in data set [2], the “Resistance to Degradation” value is listed as “-”.

Take `CC[C@H](C)[C@H](NC(=O)[C@H](Cc1ccccc1)NC(=O)[C@H](CCC(=O)O)NC(=O)[C@H](CCCCN)NC(=O)[C@H](C)NC(=O)[C@H](C)NC(=O)[C@H](CCC(N)=O)NC(=O)CNC(=O)[C@H](CCC(=O)O)NC(=O)[C@H](CC(C)C)NC(=O)[C@H](Cc1ccc(O)cc1)NC(=O)[C@H](CO)NC(=O)[C@H](CO)NC(=O)[C@@H](NC(=O)[C@H](CC(=O)O)NC(=O)[C@H](CO)NC(=O)[C@@H](NC(=O)[C@H](Cc1ccccc1)NC(=O)[C@@H](NC(=O)CNC(=O)[C@H](CCC(=O)O)NC(=O)[C@H](C)NC(=O)[C@@H](N)Cc1ccc(O)cc1)[C@@H](C)O)[C@@H](C)O)C(C)C)C(=O)N[C@@H](C)C(=O)N[C@@H](Cc1c[nH]c2ccccc12)C(=O)N[C@@H](CC(C)C)C(=O)N[C@H](C(=O)N[C@@H](CCCCN)C(=O)NCC(=O)N[C@@H](CCCNC(=N)N)C(=O)NCC(=O)O)C(C)C` [(Y)^7 -GLP-1(7-37)]: the “Resistance to Degradation” value in data set [2] is reported as “-”.

Turning to GLP-1(7-37), the “ability of recovered fragment to inhibit binding of radiolabeled GLP-1(7-37) to carboxy terminal-specific antibody” value in data set [3] was “no diminution”. The “ED50 nM Duplicate Assays (first value)” value in data set [1] (cAMP stimulation in RIN 1046-38 cells, first of duplicate assays) is on record as 0.16 nM. The “ED50 nM Duplicate Assays (second value)” value in data set [1] (cAMP stimulation in RIN 1046-38 cells, second of duplicate assays) was found to be 0.25 nM.

Turning to “HSQGTFTSDYSKYLDGQAAKEFIAWLVKGRG [(S)^8 (Q)^9 (Y)^16 (K)^18 (D)^21 -GLP-1(7-37)]”, in data set [2], the “Resistance to Degradation” value is “-”.
